Assay results from ChEMBL document CHEMBL4622922, “Discovery of novel potent GPR40 agonists containing imidazo[1,2-a]pyridine core as antidiabetic agents” (Bioorg Med Chem, 2020).
pEC50: −log10 of the molar value.

How the values were obtained:
[1] = target: Free fatty acid receptor 1 (Homo sapiens, UniProt O14842); assay: Agonist activity at GPR40 (unknown origin)
[2] = Hepatotoxicity in HFD fed/STZ-treated diabetic C57BL/6 mouse model assessed as increase in ALT level in blood at 30 mg/kg, po administered for 4 weeks; assay type: toxicity, organism-based; details: in vivo, 672 h
[3] = Hepatotoxicity in HFD fed/STZ-treated diabetic C57BL/6 mouse model assessed as increase in AST level in blood at 30 mg/kg, po administered for 4 weeks; assay type: toxicity, organism-based; details: in vivo, 672 h
[4] = Hypoglycemic activity in normoglycemic ICR mouse assessed as blood glucose level at 30 mg/kg, po administered 30 mins prior to glucose challenge and measured at 1 hr post-compound administration by OGTT; assay type: ADME, organism-based; details: in vivo
Mus musculus = assay: Glucose lowering activity in po dosed normoglycemic ICR mouse assessed as suppression of blood glucose level administered for 30 mins followed by glucose challenge and measured upto 120 mins by OGTT; assay type: functional, organism-based
[5] = Hypoglycemic activity in normoglycemic ICR mouse at 90 mg/kg, po administered for 30 mins followed by glucose challenge and measured upto 120 mins by OGTT; assay type: ADME, organism-based; details: in vivo
[6] = Clearance in Sprague-Dawley rat at 10 mg/kg, po by LC-MS/MS analysis; assay type: ADME, organism-based; details: in vivo
[7] = Cmax in Sprague-Dawley rat at 10 mg/kg, po by LC-MS/MS analysis; assay type: ADME, organism-based; design: dose 10 mg/kg, route oral; details: in vivo
[8] = Tmax in Sprague-Dawley rat at 10 mg/kg, po by LC-MS/MS analysis; assay type: ADME, organism-based; details: in vivo
[9] = AUC (0 to 24 hrs) in Sprague-Dawley rat at 10 mg/kg, po by LC-MS/MS analysis; assay type: ADME, organism-based; design: time < 24 hr, dose 10 mg/kg, route oral; details: in vivo
[10] = Half life in Sprague-Dawley rat at 10 mg/kg, po by LC-MS/MS analysis; assay type: ADME, organism-based; details: in vivo

Chain of Free fatty acid receptor 1 (O14842 whole entry): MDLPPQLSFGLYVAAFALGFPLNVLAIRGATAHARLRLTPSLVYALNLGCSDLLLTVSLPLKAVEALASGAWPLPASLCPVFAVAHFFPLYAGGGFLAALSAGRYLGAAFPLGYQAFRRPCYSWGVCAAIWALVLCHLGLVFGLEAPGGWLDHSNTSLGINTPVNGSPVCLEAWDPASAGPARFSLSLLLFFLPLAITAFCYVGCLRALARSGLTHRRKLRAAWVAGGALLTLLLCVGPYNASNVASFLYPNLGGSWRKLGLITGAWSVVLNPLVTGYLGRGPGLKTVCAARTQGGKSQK

Structure (SMILES) | pEC50 [1] | Activity [2] | Activity [3] | Activity [4] | other results
CC#CC(CC(=O)O)c1ccc(OCc2ccc3nc(-c4ccc(C)cc4)cn3c2)cc1 (configuration not stated) | 6.29 | – | – | – | –
Cc1cc(OCCCS(C)(=O)=O)cc(C)c1-c1cccc(COc2ccc3c(c2)OC[C@H]3CC(=O)O)c1 | – | Toxic | Toxic | – | –
CC#CC(CC(=O)O)c1ccc(OCc2ccn3cc(-c4ccccc4OCC)nc3c2)cc1 (configuration not stated) | 6.64 | – | – | Non-Toxic | –
CC#CC(CC(=O)O)c1ccc(OCc2ccc3nc(-c4ccc(C)cc4C)cn3c2)cc1 (configuration not stated) | 6.50 | – | – | – | –
CC#CC(CC(=O)O)c1ccc(OCc2ccc3nc(-c4ccc(OC)cc4)cn3c2)cc1 (configuration not stated) | 7.33 | Non-Toxic | Non-Toxic | Non-Toxic | Activity (Mus musculus): Dose-dependent effect; Activity [5]: Non-Toxic; CL/F [6]: 0.454 mL/min/kg; Cmax [7]: 16300 ng/mL; Tmax [8]: 8.26 h; AUC(0-t) at 24 h [9]: 288 µg·h/mL; half-life [10]: 5.93 h
